According to ChEMBL document CHEMBL1201862, “PubChem BioAssay data set” (2004):
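Five compound concentrations were applied to cells in 96-well plates for 48 hours; endpoints were derived by simple linear interpolation of the resulting dose-response curve. At the GI50, growth is halved.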 Activity calls are given as the source filed them. Cut-off read from the data, not from the text of the source: active = GI50 up to about 1.1 µM and inactive = higher. Positions of bridges follow the written chain, without caps; N, C: chain ends. Residues, ends and D or L forms follow the SMILES beside them.

Key:
Assay in all cases: NCI tumour cell line growth inhibition, 48 h
ACHN = tested on: ACHN
CAKI-1 = tested on: CAKI-1
COLO 205 = tested on: COLO 205
HL-60 = tested on: HL-60
KM12 = tested on: KM12
MDA-MB-435 = tested on: MDA-MB-435
MOLT-4 = tested on: MOLT-4
NCI-H226 = tested on: NCI-H226
NCI-H460 = tested on: NCI-H460
OVCAR-3 = tested on: OVCAR-3
PC-3 = tested on: PC-3
RXF 393 = tested on: RXF 393
SK-MEL-28 = tested on: SK-MEL-28
SNB-19 = tested on: SNB-19
SNB-75 = tested on: SNB-75
UACC-257 = tested on: UACC-257
UO-31 = tested on: UO-31
OVCAR-4 = tested on: OVCAR-4
SF-539 = tested on: SF-539
SK-MEL-5 = tested on: SK-MEL-5

| SMILES | GI50 (ACHN) | GI50 (CAKI-1) | GI50 (COLO 205) | GI50 (HL-60) | GI50 (KM12) | GI50 (MDA-MB-435) | GI50 (MOLT-4) | GI50 (NCI-H226) | GI50 (NCI-H460) | GI50 (OVCAR-3) | GI50 (PC-3) | GI50 (RXF 393) | GI50 (SK-MEL-28) | GI50 (SNB-19) | GI50 (SNB-75) | GI50 (UACC-257) | GI50 (UO-31) | GI50 (OVCAR-4) | GI50 (SF-539) | GI50 (SK-MEL-5) |
| --- | --- | --- | --- | --- | --- | --- | --- | --- | --- | --- | --- | --- | --- | --- | --- | --- | --- | --- | --- | --- |
| c1ccc(Cc2cc(-c3ccccc3)[nH]n2)cc1 | 15.8 µM (inactive) | 11.5 µM (inactive) | 17.4 µM (inactive) | 16.9 µM (inactive) | 14 µM (inactive) | 10.3 µM (inactive) | 10.4 µM (inactive) | 12.5 µM (inactive) | 17 µM (inactive) | 0.0465 µM (active) | 15.8 µM (inactive) | 10.3 µM (inactive) | 11.6 µM (inactive) | 23.2 µM (inactive) | < 0.01 µM (active) | 13.3 µM (inactive) | 21.8 µM (inactive) |  |  |  |
| Cc1ccc(SCC(CF)OC(C)n2cnc3c(Cl)nc(N)nc32)cc1 (centres undefined) | 35.2 µM (inactive) | 84.7 µM (inactive) | > 100 µM (inactive) | 22.7 µM (inactive) | > 100 µM (inactive) | 78.3 µM (inactive) | 25.8 µM (inactive) | > 100 µM (inactive) | 53 µM (inactive) | 85.7 µM (inactive) | 90.6 µM (inactive) |  | > 100 µM (inactive) | > 100 µM (inactive) | > 100 µM (inactive) | 19.3 µM (inactive) | 42.5 µM (inactive) | 16 µM (inactive) | > 100 µM (inactive) | 17.3 µM (inactive) |
| COc1ccc(-c2nc3ncccn3c2-c2ccc([S+](C)[O-])cc2)cc1 (centres undefined) | > 100 µM (inactive) | 14.2 µM (inactive) | > 100 µM (inactive) | > 100 µM (inactive) | 80.9 µM (inactive) | 15.1 µM (inactive) | > 100 µM (inactive) |  | > 100 µM (inactive) | > 100 µM (inactive) | > 100 µM (inactive) |  | > 100 µM (inactive) | > 100 µM (inactive) | > 100 µM (inactive) | > 100 µM (inactive) | > 100 µM (inactive) | > 100 µM (inactive) | > 100 µM (inactive) | 36.8 µM (inactive) |
| Cc1ccc(/N=C2\C(=N/c3ccc(C)cc3)N(c3ccc(C)cc3)C(=S)N2C(=O)c2ccccc2)cc1 | > 100 µM (inactive) | > 100 µM (inactive) | > 100 µM (inactive) |  | > 100 µM (inactive) | > 100 µM (inactive) | > 100 µM (inactive) | > 100 µM (inactive) | > 100 µM (inactive) | > 100 µM (inactive) | > 100 µM (inactive) | 46.8 µM (inactive) | > 100 µM (inactive) | > 100 µM (inactive) | 17.5 µM (inactive) | > 10 µM (inactive) | > 100 µM (inactive) |  | > 100 µM (inactive) | > 100 µM (inactive) |
| NC(Cc1c[nH]c2cc([N+](=O)[O-])ccc12)C(=O)O (centres undefined) | > 100 µM (inactive) | > 100 µM (inactive) | > 100 µM (inactive) |  | > 100 µM (inactive) | > 100 µM (inactive) | > 100 µM (inactive) | 33.7 µM (inactive) | > 100 µM (inactive) | > 100 µM (inactive) | > 100 µM (inactive) | > 100 µM (inactive) | > 100 µM (inactive) | > 100 µM (inactive) | > 100 µM (inactive) | > 100 µM (inactive) | > 100 µM (inactive) | > 100 µM (inactive) | > 100 µM (inactive) | > 100 µM (inactive) |
| CN(C)CCCN1c2ccc([N+](=O)[O-])cc2CCc2cc([N+](=O)[O-])ccc21 | 11.4 µM (inactive) |  | 14.9 µM (inactive) | 13.6 µM (inactive) | 14.8 µM (inactive) | 13.4 µM (inactive) | 14.5 µM (inactive) | 15.1 µM (inactive) | 15.1 µM (inactive) | 15.5 µM (inactive) | 16.4 µM (inactive) | 6.98 µM (inactive) | 15.3 µM (inactive) | 17.8 µM (inactive) | 12.3 µM (inactive) | 15.2 µM (inactive) | 22.5 µM (inactive) |  | 15.7 µM (inactive) | 15.7 µM (inactive) |
| CCC(C)C1NC(=O)C(CC(C)C)NC(=O)C(C(C)C)NC(=O)C2CSSCC(NC1=O)C(=O)N2 (centres undefined) (cyclo(CCVLI); disulfide 1-2; configuration not given here) | 0.458 µM (active) | 1.74 µM (inactive) | 0.0991 µM (active) | 0.155 µM (active) | 0.0507 µM (active) | 0.194 µM (active) | 0.0165 µM (active) |  | 0.116 µM (active) | 0.187 µM (active) | 0.147 µM (active) |  | 0.122 µM (active) | 0.166 µM (active) | 0.112 µM (active) | 0.141 µM (active) | 2.16 µM (inactive) | 0.18 µM (active) | 0.144 µM (active) | 0.153 µM (active) |
| C/C(=N\NC(=S)N1CCN(c2ccccn2)CC1)c1ccccn1 | < 0.0239 µM (active) | 0.0467 µM (active) | 0.00419 µM (active) |  | 0.129 µM (active) | 0.111 µM (active) | 0.0156 µM (active) | 0.649 µM (active) | 0.252 µM (active) | 0.00327 µM (active) | 0.0304 µM (active) | 0.4 µM (active) | 0.208 µM (active) | 0.27 µM (active) | 3.23 µM (inactive) | 0.00135 µM (active) | 0.998 µM (active) | 0.331 µM (active) | 0.397 µM (active) | 0.0944 µM (active) |
| COC(=O)C1=C2SCc3ccc(cc3)CSC3=C(C(=O)OC)SC(=C(S2)S1)S3 | > 100 µM (inactive) | > 100 µM (inactive) | > 100 µM (inactive) | 0.253 µM (active) | > 100 µM (inactive) | 49.4 µM (inactive) | > 100 µM (inactive) | > 100 µM (inactive) | > 100 µM (inactive) | > 100 µM (inactive) | > 100 µM (inactive) | 67.3 µM (inactive) | > 100 µM (inactive) | > 100 µM (inactive) | > 100 µM (inactive) | > 100 µM (inactive) | > 100 µM (inactive) | 64.6 µM (inactive) |  | > 100 µM (inactive) |
| Cc1ccc(/C(O)=C/c2nc3ccccc3oc2=O)cc1 | 58.1 µM (inactive) | > 100 µM (inactive) | 87.7 µM (inactive) |  | > 100 µM (inactive) | 25.6 µM (inactive) | 45.4 µM (inactive) | > 100 µM (inactive) | > 100 µM (inactive) | 51.2 µM (inactive) | 50.1 µM (inactive) | > 100 µM (inactive) |  | > 100 µM (inactive) | > 100 µM (inactive) | > 100 µM (inactive) | 40.1 µM (inactive) | > 100 µM (inactive) | > 100 µM (inactive) | 19.2 µM (inactive) |
| OCC1OC(n2cnc3c2N=CNC[C@H]3O)C(Cl)C1O (some centres undefined) | > 100 µM (inactive) | > 100 µM (inactive) | > 100 µM (inactive) | > 100 µM (inactive) | > 100 µM (inactive) | > 100 µM (inactive) | 94.2 µM (inactive) |  | > 100 µM (inactive) | > 100 µM (inactive) | > 100 µM (inactive) |  | > 100 µM (inactive) | > 100 µM (inactive) | > 100 µM (inactive) | > 100 µM (inactive) | > 100 µM (inactive) | > 100 µM (inactive) | > 100 µM (inactive) | > 100 µM (inactive) |
| O=c1/c(=C/c2ccccn2)sc2nc3cc4c(cc3n12)OCCO4 | > 100 µM (inactive) | > 100 µM (inactive) | > 100 µM (inactive) |  | > 100 µM (inactive) | > 100 µM (inactive) | > 100 µM (inactive) | > 100 µM (inactive) | > 100 µM (inactive) | > 100 µM (inactive) | > 100 µM (inactive) | > 100 µM (inactive) | > 100 µM (inactive) | > 100 µM (inactive) | 91.8 µM (inactive) | > 100 µM (inactive) | > 100 µM (inactive) | > 100 µM (inactive) |  | > 100 µM (inactive) |
| O=c1[nH]c(N/N=C\C(O)C(O)C(O)CO)nc2ccccc12 (centres undefined) | > 100 µM (inactive) | > 100 µM (inactive) | 83.2 µM (inactive) | > 100 µM (inactive) | > 100 µM (inactive) | > 100 µM (inactive) | > 100 µM (inactive) | > 100 µM (inactive) | > 100 µM (inactive) | > 100 µM (inactive) | > 100 µM (inactive) |  | > 100 µM (inactive) | > 100 µM (inactive) | > 100 µM (inactive) | > 100 µM (inactive) | > 100 µM (inactive) |  | > 100 µM (inactive) | > 100 µM (inactive) |
| C=CCOCn1cnc2c(N)ncnc21 | > 100 µM (inactive) | > 100 µM (inactive) | > 100 µM (inactive) | > 100 µM (inactive) | > 100 µM (inactive) | > 100 µM (inactive) | > 100 µM (inactive) | > 100 µM (inactive) | > 100 µM (inactive) |  | > 100 µM (inactive) |  | > 100 µM (inactive) | > 100 µM (inactive) | > 100 µM (inactive) | > 100 µM (inactive) | > 100 µM (inactive) | > 100 µM (inactive) | > 100 µM (inactive) | > 100 µM (inactive) |
| CC1(C)CCCCCCCCCC(C)(CCCO)C1=O (centres undefined) | 17.9 µM (inactive) | 17.7 µM (inactive) | 16.3 µM (inactive) | 19.7 µM (inactive) | 18.4 µM (inactive) | 18.2 µM (inactive) | 14.1 µM (inactive) | 16.1 µM (inactive) | 18.4 µM (inactive) | 19.6 µM (inactive) | 14 µM (inactive) | 19.7 µM (inactive) | 18.2 µM (inactive) | 17.8 µM (inactive) | 17.9 µM (inactive) | 17.7 µM (inactive) | 12 µM (inactive) | 15.5 µM (inactive) |  | 17.5 µM (inactive) |
